We go through 18 molecules from patent publication US20140179681A1, “METHODS AND COMPOSITIONS OF TARGETED DRUG DEVELOPMENT” (priority 2010, published 2014).

Each structure is given as a SMILES string. Where two headings read alike, the source gives them in different places.

Test [1] has as its system epithelial carcinoma A431 cell line. The experiment in a line: MTT Cell Proliferation Assay, A431 cells. The class given is cell-based. The gist of the method:
(§1)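 Viability was measured by mitochondrial MTT reduction after cells were exposed to compound for 3 days in reduced-serum medium. Inhibition was calculated per plate against 0.5% DMSO controls.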

In test [2] the target is T1, EGFR (Homo sapiens, UniProt P00533).
T1 construct: host or cells: A431
T1 sequence (P00533 25-1210): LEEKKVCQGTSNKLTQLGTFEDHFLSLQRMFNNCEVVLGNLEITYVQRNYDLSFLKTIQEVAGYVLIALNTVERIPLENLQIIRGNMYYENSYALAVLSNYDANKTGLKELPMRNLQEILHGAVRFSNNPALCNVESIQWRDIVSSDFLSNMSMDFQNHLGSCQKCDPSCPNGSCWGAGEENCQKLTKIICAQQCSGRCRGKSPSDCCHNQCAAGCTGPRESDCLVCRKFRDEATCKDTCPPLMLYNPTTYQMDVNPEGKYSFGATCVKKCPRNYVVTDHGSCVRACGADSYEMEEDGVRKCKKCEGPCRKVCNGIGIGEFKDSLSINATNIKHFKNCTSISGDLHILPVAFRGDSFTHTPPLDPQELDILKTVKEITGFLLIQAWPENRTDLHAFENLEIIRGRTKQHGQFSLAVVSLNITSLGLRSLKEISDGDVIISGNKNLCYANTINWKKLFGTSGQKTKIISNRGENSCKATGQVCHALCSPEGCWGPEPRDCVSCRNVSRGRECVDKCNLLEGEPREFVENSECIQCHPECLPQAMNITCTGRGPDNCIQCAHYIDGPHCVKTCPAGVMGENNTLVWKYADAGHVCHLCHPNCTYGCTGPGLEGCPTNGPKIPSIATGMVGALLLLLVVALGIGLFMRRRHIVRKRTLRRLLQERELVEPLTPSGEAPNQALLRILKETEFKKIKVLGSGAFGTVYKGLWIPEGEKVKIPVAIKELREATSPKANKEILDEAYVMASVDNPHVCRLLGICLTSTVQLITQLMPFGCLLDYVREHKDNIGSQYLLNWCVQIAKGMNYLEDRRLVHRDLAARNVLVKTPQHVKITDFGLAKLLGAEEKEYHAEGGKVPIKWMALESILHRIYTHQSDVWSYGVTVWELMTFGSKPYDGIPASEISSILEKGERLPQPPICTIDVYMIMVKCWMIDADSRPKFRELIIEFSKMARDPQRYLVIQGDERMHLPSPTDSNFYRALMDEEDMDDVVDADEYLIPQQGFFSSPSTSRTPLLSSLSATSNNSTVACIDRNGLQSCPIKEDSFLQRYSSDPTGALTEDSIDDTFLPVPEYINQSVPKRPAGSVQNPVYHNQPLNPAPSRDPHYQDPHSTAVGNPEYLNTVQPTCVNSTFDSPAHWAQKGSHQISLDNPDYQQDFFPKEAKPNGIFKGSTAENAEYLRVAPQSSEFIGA
Description: EGFR in-cell Western (ICW) screening protocol (EGFR inhibition assay). It is filed as cell-based. Conditions: for ICW Screen: Table 11; for ICW Screen / ICW assay: % Inhibition of EGF dependent EGFR phosphorylation in A431 cells, compound 125 μM in assay; for ICW assay: Table 10. In a few lines:
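Serum-starved A431 cells (2 h) were pretreated with compound for 4 h at 37° C, then stimulated with EGF (10 ng/ml final, or 6.6 or 12.5 ng/ml in some runs) for 10 min. After formaldehyde fixation, phospho-EGFR (Tyr1173, or Tyr1045 in some runs) and total EGFR were detected by in-cell Western immunostaining.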

For test [3], the system named is MDBK line. The experiment in a line: MTT Cell Proliferation Assay, MDBK cells. The class given is cell-based, bovine. In a few lines: as §1
[4] abbreviates: first value of 'a/b (c)', taken as A431 cells, read-out: MTT Screen, first value of cell.
Setting [5] is: Bos taurus, MDBK, second value of 'a/b (c)', taken as MDBK cells, read-out: MTT Screen, second value of cell.
Where [6] appears, read: Homo sapiens, A-431, 72 h, Table 10, first of x/y(ratio): A431, three day treatment, unit not printed (doses in μM), read-out: MTT assay (first value).
The mark [7] stands for this setting: Bos taurus, MDBK, 72 h, Table 10, second of x/y(ratio): MDBK, three day treatment, unit not printed (doses in μM), read-out: MTT assay (second value).
Where [8] appears, read: Homo sapiens, A-431, first value of 'a/b (c)', taken as A431 cells, read-out: MTT Screen, first value of cell.
[9] abbreviates: second value of 'a/b (c)', taken as MDBK cells, read-out: MTT Screen, second value of cell.

As for `Cc1c(O)ccc2c(CN3CCN(Cc4ccc5c(c4)OCO5)CC3)cc(=O)oc12` [AD4-10637], the IC50 in test [1] (Homo sapiens, A-431, Table 11, first of x/y(ratio): A431, unit not printed (doses in μM), read-out: MTT Screen (first value)) amounted to 20.8 µM; in test [3] (Bos taurus, MDBK, Table 11, second of x/y(ratio): MDBK, unit not printed (doses in μM), read-out: MTT Screen (second value)), 41.3 µM. For the same molecule, in test [2], the “ICW Screen” value amounted to 30.057.
In the case of `O=c1cc(CN2CCN(Cc3ccccc3)CC2)c2cc3c(cc2o1)OCO3` [AD4-10639], the IC50 in test [1] (Homo sapiens, A-431, 72 h, Table 11, first of x/y(ratio): A431, unit not printed (doses in μM), read-out: MTT Screen (first value)) stood at 42.6 µM. Moreover, in test [2], the “ICW Screen” value stood at 43.695. Besides, the “MTT Screen (second value)” value in test [3] (Table 11, second of x/y(ratio): MDBK, unit not printed (doses in μM)) was “non-convergent”.
In the case of `Cc1ccc(NS(=O)(=O)c2ccc(NC(=S)NC(=O)C3CCC3)cc2)cc1C` [AD4-10676], the IC50 in test [1] (setting [4]) came out at 18.6 µM; in test [3] (setting [5]), 8.84 µM. Further, in test [2], the “ICW Screen (ICW Inhibition)” value is on record as 59.637.
As for `CC(=O)c1cccc(NC(=S)Nc2ccc(NS(=O)(=O)c3ccc(C)cc3)cc2)c1` [AD4-10693], the IC50 in test [1] (setting [6]) worked out at 48.2 µM; in test [3] (setting [7]), 35.9 µM. Also, the ICW assay in test [2] is 26.8206.
For `CC(=O)c1ccc(NC(=S)Nc2ccc(S(=O)(=O)Nc3ccccc3C)cc2)cc1` [AD4-10700] the same measures were 14.7 µM, 14.3 µM and 52.5996.
`O=C(NC(=S)Nc1ccc(S(=O)(=O)Nc2ccccc2)cc1)c1ccco1` [AD4-10705]: the IC50 in test [1] (setting [8]) was 23.1 µM; in test [3] (setting [5]), 25.2 µM. In addition, the “ICW Screen (ICW Inhibition)” value in test [2] is recorded as 47.764.
As for `Cc1ccccc1C(=O)NC(=S)Nc1ccc(S(=O)(=O)Nc2ccccc2)cc1` [AD4-10706], the results for the IC50 in test [1] (setting [8]) and in test [3] (setting [5]) were 15.1 µM and 23.1 µM, respectively. Also, in test [2], the “ICW Screen (ICW Inhibition)” value stood at 55.497.
For `Cc1ccc(NS(=O)(=O)c2ccc(NC(=S)NC(=O)C3CCCCC3)cc2)cc1C` [AD4-10708] the same measures were 16.6 µM, 35.9 µM and 37.233.
For the molecule `CCOc1ccc(NS(=O)(=O)c2ccc(NC(=S)Nc3ccccc3)cc2)cc1` [AD4-11344], the results for the IC50 in test [1] (setting [6]) and in test [3] (setting [7]) were 15.1 µM and 15.3 µM, respectively. Further, in test [2], the ICW assay was found to be 34.1727.
In the case of `CCc1nnc(NS(=O)(=O)c2ccc(NC(=S)NC(=O)/C=C/c3ccccc3)cc2)s1` [AD4-11367], the figures for the IC50 in test [1] (setting [8]) and in test [3] (setting [5]) were 43.3 µM and 43.6 µM, respectively. The “ICW Screen (ICW Inhibition)” value in test [2] stood at 46.872.
Turning to `COc1cc(NS(=O)(=O)c2ccc(NC(=S)NC(=O)/C=C/c3ccccc3)cc2)nc(OC)n1` [AD4-11369], the IC50 in test [1] (setting [8]) was 48.6 µM; in test [3] (setting [9]), 47.2 µM. The “ICW Screen (ICW Inhibition)” value in test [2] was found to be 43.546.
Turning to `COc1ccc(OCC(=O)NC(=S)Nc2ccc(S(=O)(=O)Nc3cc(C)cc(C)c3)cc2)cc1` [AD4-11396], the IC50 in test [1] (setting [4]) was determined as 25.1 µM; in test [3] (setting [9]) it was 21.2 µM. Further, in test [2], the “ICW Screen (ICW Inhibition)” value came to 30.745.
For the molecule `Cc1cc(Cl)ccc1OCC(=O)NC(=S)Nc1ccc(S(=O)(=O)N2CCCCC2)cc1` [AD4-11402], the IC50 was 11.8 µM in test [1] (setting [8]) and 17.4 µM in test [3] (setting [5]). In addition, the “ICW Screen (ICW Inhibition)” value in test [2] is 33.635.
For `CCOc1ccc(NS(=O)(=O)c2ccc(NC(=S)NC(=O)CC)cc2)cc1` [AD4-11409] the same measures were 17.2 µM, 11.7 µM and 74.94.
The corresponding values for `CCN(c1ccccc1)S(=O)(=O)c1ccc(NC(=S)NC(=O)Cc2ccccc2)cc1` [AD4-11412] are 11.4 µM, 20 µM and 31.958.
Turning to `O=C(NC(=S)Nc1ccc(S(=O)(=O)Nc2ccccc2)cc1)C1CC1` [AD4-11413], the IC50 is 31.4 µM in test [1] (setting [4]) and 29.8 µM in test [3] (setting [9]). Besides, the “ICW Screen (ICW Inhibition)” value in test [2] stood at 46.23.
With `COc1ccc(CC(=O)NC(=S)Nc2ccc(S(=O)(=O)NCCc3ccccc3)cc2)cc1` [AD4-11415], the IC50 was 15.7 µM in test [1] (setting [8]) and 10.5 µM in test [3] (setting [5]). For the same molecule, in test [2], the “ICW Screen (ICW Inhibition)” value turned out to be 35.841.
Regarding `O=C(Cc1ccccc1)NC(=S)Nc1ccc(S(=O)(=O)Nc2ccccc2)cc1` [AD4-11416], the IC50 in test [1] (setting [4]) is 15.4 µM; in test [3] (setting [9]) it was 13.5 µM. The “ICW Screen (ICW Inhibition)” value in test [2] is 53.517.
